Test results taken from patent US9546156B2, “N-bicyclic aryl,N'-pyrazolyl urea, thiourea, guanidine cyanoguanidine compounds as TrkA kinase inhibitors” (Array BioPharma Inc., priority 2012, dated 2017).

Legend:
Test in all cases: Off-target kinase profiling (KinaseProfiler)
Type in all cases: biochemical
Settings in all cases: 10 μM, ATP near Km
PKCbetaI = biological target: T1, PKCbetaI (Homo sapiens, UniProt P05771)
T1 construct: purchased Millipore, Inc. (KinaseProfiler service)
Method: (§1) A representative compound (Example 16) of the invention was tested for off-target kinase activity at a concentration of 10 μM by Millipore, Inc. in their KinaseProfiler™ service against all the kinases available in their full kinase panel. The compound was run in duplicate at a concentration of ATP near the Km for each individual kinase according to Millipore's specifications. The results are shown in Table B. Data are reported as percent of control (POC) and are the average of the two replicates.

PTK5 = biological target: T2, PTK5 (Homo sapiens, UniProt P42685)
T2 construct: purchased Millipore, Inc. (KinaseProfiler service)
Method: as §1

PKD1 = biological target: T3, PKD1 (Homo sapiens, UniProt Q15139)
T3 construct: purchased Millipore, Inc. (KinaseProfiler service)
Method: as §1

SGK3 = biological target: T4, SGK3 (Homo sapiens, UniProt Q96BR1)
T4 construct: purchased Millipore, Inc. (KinaseProfiler service)
Method: as §1

CK1gamma3 = biological target: T5, CK1gamma3 (Homo sapiens, UniProt Q9Y6M4)
T5 construct: purchased Millipore, Inc. (KinaseProfiler service)
Method: as §1

NEK3 = biological target: T6, NEK3 (Homo sapiens, UniProt P51956)
T6 construct: purchased Millipore, Inc. (KinaseProfiler service)
Method: as §1

Axl = biological target: T7, Axl (Homo sapiens, UniProt P30530)
T7 construct: purchased Millipore, Inc. (KinaseProfiler service)
Method: as §1

MARK2 = biological target: T8, MARK2 (Homo sapiens, UniProt Q7KZI7)
T8 construct: purchased Millipore, Inc. (KinaseProfiler service)
Method: as §1

TLK2 = biological target: T9, TLK2 (Homo sapiens, UniProt Q86UE8)
T9 construct: purchased Millipore, Inc. (KinaseProfiler service)
Method: as §1

p38alpha = biological target: T10, p38alpha (Homo sapiens, UniProt Q16539)
T10 construct: purchased Millipore, Inc. (KinaseProfiler service)
Method: as §1

DMPK = biological target: T11, DMPK (Homo sapiens, UniProt Q09013)
T11 construct: purchased Millipore, Inc. (KinaseProfiler service)
Method: as §1

Lck = biological target: T12, Lck (Homo sapiens, UniProt P06239)
T12 construct: purchased Millipore, Inc. (KinaseProfiler service)
Method: as §1

CK2 = biological target: T13, CK2 (Homo sapiens, UniProt P68400)
T13 construct: purchased Millipore, Inc. (KinaseProfiler service)
Method: as §1

RIPK2 = biological target: T14, RIPK2 (Homo sapiens, UniProt O43353)
T14 construct: purchased Millipore, Inc. (KinaseProfiler service)
Method: as §1

p38delta = biological target: T15, p38delta (Homo sapiens, UniProt O15264)
T15 construct: purchased Millipore, Inc. (KinaseProfiler service)
Method: as §1

EphA1 = biological target: T16, EphA1 (Homo sapiens, UniProt P21709)
T16 construct: purchased Millipore, Inc. (KinaseProfiler service)
Method: as §1

PAK2 = biological target: T17, PAK2 (Homo sapiens, UniProt Q13177)
T17 construct: purchased Millipore, Inc. (KinaseProfiler service)
Method: as §1

CDK9/cyclinT1 = biological target: T18, CDK9/cyclinT1 (Homo sapiens, UniProt P50750)
T18 construct: purchased Millipore, Inc. (KinaseProfiler service)
Method: as §1

EphB2 = biological target: T19, EphB2 (Homo sapiens, UniProt P29323)
T19 construct: purchased Millipore, Inc. (KinaseProfiler service)
Method: as §1

Plk1 = biological target: T20, Plk1 (Homo sapiens, UniProt P53350)
T20 construct: purchased Millipore, Inc. (KinaseProfiler service)
Method: as §1

Txk = biological target: T21, Txk (Homo sapiens, UniProt P42681)
T21 construct: purchased Millipore, Inc. (KinaseProfiler service)
Method: as §1

Met = biological target: T22, Met (Homo sapiens, UniProt P08581)
T22 construct: purchased Millipore, Inc. (KinaseProfiler service)
Method: as §1

PKD2 = biological target: T23, PKD2 (Homo sapiens, UniProt Q9BZL6)
T23 construct: purchased Millipore, Inc. (KinaseProfiler service)
Method: as §1

PAK6 = biological target: T24, PAK6 (Homo sapiens, UniProt Q9NQU5)
T24 construct: purchased Millipore, Inc. (KinaseProfiler service)
Method: as §1

CDK1/cyclinB = biological target: T25, CDK1/cyclinB (Homo sapiens, UniProt P06493)
T25 construct: purchased Millipore, Inc. (KinaseProfiler service)
Method: as §1

TrkA = biological target: T26, TrkA (Homo sapiens, UniProt P04629)
T26 construct: purchased Millipore, Inc. (KinaseProfiler service)
Method: as §1

LIMK1 = biological target: T27, LIMK1 (Homo sapiens, UniProt P53667)
T27 construct: purchased Millipore, Inc. (KinaseProfiler service)
Method: as §1

FGFR3 = biological target: T28, FGFR3 (Homo sapiens, UniProt P22607)
T28 construct: purchased Millipore, Inc. (KinaseProfiler service)
Method: as §1

DRAK1 = biological target: T29, DRAK1 (Homo sapiens, UniProt Q9UEE5)
T29 construct: purchased Millipore, Inc. (KinaseProfiler service)
Method: as §1

MKK6 = biological target: T30, MKK6 (Homo sapiens, UniProt P52564)
T30 construct: purchased Millipore, Inc. (KinaseProfiler service)
Method: as §1

ULK3 = biological target: T31, ULK3 (Homo sapiens, UniProt Q6PHR2)
T31 construct: purchased Millipore, Inc. (KinaseProfiler service)
Method: as §1

JNK2alpha2 = biological target: T32, JNK2alpha2 (Homo sapiens, UniProt P45984)
T32 construct: purchased Millipore, Inc. (KinaseProfiler service)
Method: as §1

CAMK2g = biological target: T33, CAMK2g (Homo sapiens, UniProt Q13555)
T33 construct: purchased Millipore, Inc. (KinaseProfiler service)
Method: as §1

Flt1 = biological target: T34, Flt1 (Homo sapiens, UniProt P17948)
T34 construct: purchased Millipore, Inc. (KinaseProfiler service)
Method: as §1

SRPK1 = biological target: T35, SRPK1 (Homo sapiens, UniProt Q96SB4)
T35 construct: purchased Millipore, Inc. (KinaseProfiler service)
Method: as §1

JAK2 = biological target: T36, JAK2 (Homo sapiens, UniProt O60674)
T36 construct: purchased Millipore, Inc. (KinaseProfiler service)
Method: as §1

Mer = biological target: T37, Mer (Homo sapiens, UniProt Q12866)
T37 construct: purchased Millipore, Inc. (KinaseProfiler service)
Method: as §1

Ret = biological target: T38, Ret (Homo sapiens, UniProt P07949)
T38 construct: purchased Millipore, Inc. (KinaseProfiler service)
Method: as §1

MRCKbeta = biological target: T39, MRCKbeta (Homo sapiens, UniProt Q9Y5S2)
T39 construct: purchased Millipore, Inc. (KinaseProfiler service)
Method: as §1

PKCepsilon = biological target: T40, PKCepsilon (Homo sapiens, UniProt Q02156)
T40 construct: purchased Millipore, Inc. (KinaseProfiler service)
Method: as §1

EGFR = biological target: T41, EGFR (Homo sapiens, UniProt P00533)
T41 construct: purchased Millipore, Inc. (KinaseProfiler service)
Method: as §1

FGFR4 = biological target: T42, FGFR4 (Homo sapiens, UniProt P22455)
T42 construct: purchased Millipore, Inc. (KinaseProfiler service)
Method: as §1

T21 sequence (P42681 whole entry): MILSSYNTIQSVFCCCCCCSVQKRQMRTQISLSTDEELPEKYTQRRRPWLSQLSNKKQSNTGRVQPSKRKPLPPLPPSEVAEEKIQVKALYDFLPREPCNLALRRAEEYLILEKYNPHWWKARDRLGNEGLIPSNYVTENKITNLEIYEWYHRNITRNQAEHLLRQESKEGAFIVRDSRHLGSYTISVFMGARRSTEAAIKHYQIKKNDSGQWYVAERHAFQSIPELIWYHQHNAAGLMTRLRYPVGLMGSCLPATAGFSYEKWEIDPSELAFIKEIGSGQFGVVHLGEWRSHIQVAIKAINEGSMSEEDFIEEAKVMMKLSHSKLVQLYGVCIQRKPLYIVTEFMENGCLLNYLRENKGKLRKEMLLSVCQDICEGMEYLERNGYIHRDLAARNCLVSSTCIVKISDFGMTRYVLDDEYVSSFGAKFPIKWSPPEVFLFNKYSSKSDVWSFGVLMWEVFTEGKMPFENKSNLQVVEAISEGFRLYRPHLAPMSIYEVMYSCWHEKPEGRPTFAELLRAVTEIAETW
T42 sequence (P22455 22-802): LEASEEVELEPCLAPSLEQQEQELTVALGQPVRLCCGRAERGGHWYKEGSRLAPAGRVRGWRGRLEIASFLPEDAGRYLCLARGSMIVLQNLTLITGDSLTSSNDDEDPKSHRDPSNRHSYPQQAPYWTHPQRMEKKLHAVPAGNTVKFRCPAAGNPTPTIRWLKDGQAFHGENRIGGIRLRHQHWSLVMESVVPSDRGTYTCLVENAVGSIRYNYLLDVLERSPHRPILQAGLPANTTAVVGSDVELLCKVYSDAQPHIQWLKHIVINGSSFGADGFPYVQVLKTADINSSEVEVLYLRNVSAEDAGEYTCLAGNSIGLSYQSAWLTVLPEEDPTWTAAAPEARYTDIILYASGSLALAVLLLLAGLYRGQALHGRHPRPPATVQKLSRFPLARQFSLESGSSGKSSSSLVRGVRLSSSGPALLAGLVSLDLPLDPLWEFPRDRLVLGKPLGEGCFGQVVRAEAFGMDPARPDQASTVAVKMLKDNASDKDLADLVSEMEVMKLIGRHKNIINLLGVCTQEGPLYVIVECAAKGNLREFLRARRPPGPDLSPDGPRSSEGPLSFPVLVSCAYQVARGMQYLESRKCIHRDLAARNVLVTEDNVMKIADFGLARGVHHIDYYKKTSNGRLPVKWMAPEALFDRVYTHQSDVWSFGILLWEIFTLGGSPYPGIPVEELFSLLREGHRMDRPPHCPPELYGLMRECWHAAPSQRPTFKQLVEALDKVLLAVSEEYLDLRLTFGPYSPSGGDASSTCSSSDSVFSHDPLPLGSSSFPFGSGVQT
T8 sequence (Q7KZI7 whole entry): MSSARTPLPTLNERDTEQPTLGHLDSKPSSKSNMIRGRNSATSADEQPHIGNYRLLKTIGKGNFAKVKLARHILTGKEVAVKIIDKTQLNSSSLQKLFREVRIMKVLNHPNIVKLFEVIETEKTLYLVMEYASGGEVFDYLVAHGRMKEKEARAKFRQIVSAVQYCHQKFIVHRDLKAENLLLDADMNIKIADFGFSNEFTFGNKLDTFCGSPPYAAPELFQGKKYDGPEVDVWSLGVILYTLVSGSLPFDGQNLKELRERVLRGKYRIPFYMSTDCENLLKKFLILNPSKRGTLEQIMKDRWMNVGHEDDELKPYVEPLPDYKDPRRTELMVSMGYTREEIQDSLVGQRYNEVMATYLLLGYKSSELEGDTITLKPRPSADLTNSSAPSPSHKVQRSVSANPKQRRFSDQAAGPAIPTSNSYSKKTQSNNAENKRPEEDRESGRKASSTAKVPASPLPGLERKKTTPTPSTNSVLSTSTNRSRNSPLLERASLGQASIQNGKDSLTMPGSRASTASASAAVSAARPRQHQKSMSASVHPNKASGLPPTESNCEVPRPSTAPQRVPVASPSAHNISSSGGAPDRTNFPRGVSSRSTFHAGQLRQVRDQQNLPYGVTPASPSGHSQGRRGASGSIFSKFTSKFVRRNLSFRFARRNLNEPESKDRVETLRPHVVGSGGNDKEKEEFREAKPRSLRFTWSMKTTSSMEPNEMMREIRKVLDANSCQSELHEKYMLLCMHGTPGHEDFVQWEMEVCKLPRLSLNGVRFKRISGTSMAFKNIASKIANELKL
T19 sequence (P29323 19-1055): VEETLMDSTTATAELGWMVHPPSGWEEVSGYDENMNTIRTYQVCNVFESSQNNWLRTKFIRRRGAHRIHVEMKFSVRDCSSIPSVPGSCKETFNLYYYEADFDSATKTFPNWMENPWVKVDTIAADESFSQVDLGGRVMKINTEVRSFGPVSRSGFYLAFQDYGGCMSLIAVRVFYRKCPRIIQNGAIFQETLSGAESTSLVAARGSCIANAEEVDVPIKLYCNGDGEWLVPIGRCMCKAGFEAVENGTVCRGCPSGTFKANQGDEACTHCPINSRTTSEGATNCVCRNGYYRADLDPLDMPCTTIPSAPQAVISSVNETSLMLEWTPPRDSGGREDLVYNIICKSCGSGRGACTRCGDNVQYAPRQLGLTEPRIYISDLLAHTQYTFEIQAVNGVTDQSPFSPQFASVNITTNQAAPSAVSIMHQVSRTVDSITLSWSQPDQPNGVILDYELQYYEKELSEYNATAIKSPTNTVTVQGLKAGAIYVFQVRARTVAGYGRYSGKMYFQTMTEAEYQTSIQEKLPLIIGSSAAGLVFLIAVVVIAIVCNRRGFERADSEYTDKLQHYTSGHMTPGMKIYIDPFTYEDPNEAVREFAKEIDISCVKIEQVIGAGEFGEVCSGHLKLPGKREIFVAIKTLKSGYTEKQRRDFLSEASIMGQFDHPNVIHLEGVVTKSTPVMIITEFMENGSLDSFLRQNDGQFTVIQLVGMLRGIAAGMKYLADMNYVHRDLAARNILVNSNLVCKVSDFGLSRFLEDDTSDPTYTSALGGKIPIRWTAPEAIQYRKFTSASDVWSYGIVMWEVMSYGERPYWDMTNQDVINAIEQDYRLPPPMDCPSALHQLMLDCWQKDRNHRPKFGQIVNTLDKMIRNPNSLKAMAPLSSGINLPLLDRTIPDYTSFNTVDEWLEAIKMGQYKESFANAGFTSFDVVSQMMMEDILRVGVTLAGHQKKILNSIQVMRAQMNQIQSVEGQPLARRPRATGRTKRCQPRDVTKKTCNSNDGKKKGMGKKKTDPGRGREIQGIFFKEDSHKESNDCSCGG
T20 sequence (P53350 whole entry): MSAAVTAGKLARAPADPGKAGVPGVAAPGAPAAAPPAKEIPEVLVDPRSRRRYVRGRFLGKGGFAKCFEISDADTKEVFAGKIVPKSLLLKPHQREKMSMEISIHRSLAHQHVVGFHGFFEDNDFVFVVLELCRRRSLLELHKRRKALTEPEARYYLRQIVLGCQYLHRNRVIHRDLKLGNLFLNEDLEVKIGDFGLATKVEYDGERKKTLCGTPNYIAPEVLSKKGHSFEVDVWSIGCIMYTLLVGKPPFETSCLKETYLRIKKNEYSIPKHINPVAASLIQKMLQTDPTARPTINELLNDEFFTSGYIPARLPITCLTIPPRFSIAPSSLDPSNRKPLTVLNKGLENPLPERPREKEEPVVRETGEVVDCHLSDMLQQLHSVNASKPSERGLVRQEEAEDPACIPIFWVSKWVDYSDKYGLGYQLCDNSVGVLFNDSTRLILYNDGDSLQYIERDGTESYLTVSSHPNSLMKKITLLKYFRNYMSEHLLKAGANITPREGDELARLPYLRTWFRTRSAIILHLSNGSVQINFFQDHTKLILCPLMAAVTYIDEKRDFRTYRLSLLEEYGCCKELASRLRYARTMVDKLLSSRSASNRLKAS
T33 sequence (Q13555 whole entry): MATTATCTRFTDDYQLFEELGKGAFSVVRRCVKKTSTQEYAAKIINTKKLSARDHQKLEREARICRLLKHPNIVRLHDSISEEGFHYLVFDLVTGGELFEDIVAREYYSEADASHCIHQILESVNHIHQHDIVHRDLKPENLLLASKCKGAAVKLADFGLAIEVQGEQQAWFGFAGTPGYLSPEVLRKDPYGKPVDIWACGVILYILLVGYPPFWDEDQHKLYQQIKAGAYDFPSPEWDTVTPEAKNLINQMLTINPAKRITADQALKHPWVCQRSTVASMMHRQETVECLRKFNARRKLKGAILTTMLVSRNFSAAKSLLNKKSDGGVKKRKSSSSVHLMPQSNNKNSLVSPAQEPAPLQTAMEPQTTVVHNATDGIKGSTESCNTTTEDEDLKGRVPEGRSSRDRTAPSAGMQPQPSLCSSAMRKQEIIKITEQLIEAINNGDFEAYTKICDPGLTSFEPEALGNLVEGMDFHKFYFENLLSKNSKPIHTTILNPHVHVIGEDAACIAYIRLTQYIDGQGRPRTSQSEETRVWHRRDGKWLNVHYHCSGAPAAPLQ
T32 sequence (P45984 whole entry): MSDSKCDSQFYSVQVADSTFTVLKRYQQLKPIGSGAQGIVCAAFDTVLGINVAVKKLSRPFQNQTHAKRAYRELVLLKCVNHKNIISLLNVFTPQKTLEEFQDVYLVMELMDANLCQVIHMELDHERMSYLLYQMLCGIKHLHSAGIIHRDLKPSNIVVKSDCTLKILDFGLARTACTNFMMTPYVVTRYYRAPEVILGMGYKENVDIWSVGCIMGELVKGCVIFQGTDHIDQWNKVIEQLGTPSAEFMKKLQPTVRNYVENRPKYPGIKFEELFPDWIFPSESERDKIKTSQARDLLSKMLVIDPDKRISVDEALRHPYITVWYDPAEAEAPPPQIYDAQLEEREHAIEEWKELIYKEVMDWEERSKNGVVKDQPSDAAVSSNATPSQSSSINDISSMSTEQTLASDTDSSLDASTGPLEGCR
T30 sequence (P52564 whole entry): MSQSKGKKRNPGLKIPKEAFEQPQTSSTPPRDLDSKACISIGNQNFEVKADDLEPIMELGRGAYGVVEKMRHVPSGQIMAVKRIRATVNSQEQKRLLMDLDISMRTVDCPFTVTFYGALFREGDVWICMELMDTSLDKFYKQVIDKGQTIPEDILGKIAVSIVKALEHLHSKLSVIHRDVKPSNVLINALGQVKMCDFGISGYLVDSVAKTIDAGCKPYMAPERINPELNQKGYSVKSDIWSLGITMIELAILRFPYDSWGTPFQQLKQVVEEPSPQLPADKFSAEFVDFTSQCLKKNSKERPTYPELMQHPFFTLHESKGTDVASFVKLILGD

- Avg POC (PKCbetaI): 97 POC
- Avg POC (PTK5): 118.5 POC
- Avg POC (PKD1): 117.5 POC
- Avg POC (SGK3): 131.5 POC
- Avg POC (CK1gamma3): 120 POC
- Avg POC (NEK3): 122 POC
- Avg POC (Axl): 103.5 POC
- Avg POC (MARK2): 114 POC
- Avg POC (TLK2): 106 POC
- Avg POC (p38alpha): 117 POC
- Avg POC (DMPK): 110.5 POC
- Avg POC (Lck): 103 POC
- Avg POC (CK2): 114.5 POC
- Avg POC (RIPK2): 107 POC
- Avg POC (p38delta): 121 POC
- Avg POC (EphA1): 104.5 POC
- Avg POC (PAK2): 121 POC
- Avg POC (CDK9/cyclinT1): 114.5 POC
- Avg POC (EphB2): 109 POC
- Avg POC (Plk1): 95 POC
- Avg POC (Txk): 131 POC
- Avg POC (Met): 130 POC
- Avg POC (PKD2): 106 POC
- Avg POC (PAK6): 125 POC
- Avg POC (CDK1/cyclinB): 117.5 POC
- Avg POC (TrkA): 2 POC
- Avg POC (LIMK1): 105.5 POC
- Avg POC (FGFR3): 122 POC
- Avg POC (DRAK1): 136 POC
- Avg POC (MKK6): 94.5 POC
- Avg POC (ULK3): 98.5 POC
- Avg POC (JNK2alpha2): 126.5 POC
- Avg POC (CAMK2g): 98 POC
- Avg POC (Flt1): 115.5 POC
- Avg POC (SRPK1): 119 POC
- Avg POC (JAK2): 181 POC
- Avg POC (Mer): 116 POC
- Avg POC (Ret): 115 POC
- Avg POC (MRCKbeta): 119 POC
- Avg POC (PKCepsilon): 137 POC
- Avg POC (EGFR): 106 POC
- Avg POC (FGFR4): 129 POC
Compound: COCc1ccc2cccc(NC(=O)Nc3c(C)c(-c4cnn(C)c4)nn3-c3ccccc3)c2c1 [Example 16, 1-(1′,4-dimethyl-1-phenyl-1H,1′H-[3,4′-bipyrazol]-5-yl)-3-(7-(methoxymethyl)naphthalen-1-yl)urea]
